Laboratory results reported in patent publication US6996429B2, “Apparatus and method for detecting flinch response to nociceptive agents” (Regents of the Univeristy of California, San Diego, priority 2001, dated 2006).
Entries after “also recorded” stand apart in the source; their conditions may differ. Like-named read-outs stand apart in the source and are kept apart here.

Columns and labels:
[1] = tested on: formalin induced flinching in the rat; assay: Effects of systemic and spinal drugs on formalin evoked flinching behavior (automated formalin test); type: in vivo
Protocol: To examine the effects of a drug on flinching behavior, rats received intraperitoneal or intrathecal injections of the drug. Intraperitoneal injections were delivered in volumes of 0.5 ml/kg.
Solutions were prepared fresh daily.
The percent inhibition is computed by dividing the response of each animal in a given group by the respective vehicle control group and multiplying by 100.
5. Test for intrathecal and intraperitoneal drugs on flinch behavior. […] Dose response curves of each agent were generated to relate drug effect to paw flinch and for comparison with previously reported data.

[2] = tested on: rat hind paw; conditions: for Cumulative flinching behavior (Mean ± SD) Phase I / Cumulative flinching behavior (Mean ± SD) Phase II / Cumulative flinching behavior (Mean ± SD) Phase IIA / Cumulative flinching behavior (Mean ± SD) Phase IIB: N 12
[3] = Formalin, 0.5% vs. Formalin, 2.5%
[4] = No Injection vs. Formalin, 2.5%

C[C@]12N[C@H](Cc3ccccc31)c1ccccc12 [MK801]
ED50 Phase II (Mean and 95% confidence intervals) ([1]; IT (intrathecal), Phase II (10–60 min), from % MPE dose effect curves): 9.5 (87-1.0) μg
ED50 Phase IIA (Mean and 95% confidence intervals) ([1]; IT (intrathecal), Phase IIA (10–40 min), from % MPE dose effect curves): 7.3 (43-1.2) μg
effect on the flinching response ([1]; intrathecal injection): potent dose dependent reduction in Phase II but not Phase I
effect on the flinching response ([1]; systemic (intraperitoneal) injection): potent dose dependent reduction in Phase II but not Phase I
flinching behavior at the lowest doses ([1]; systemic delivery, lowest doses): apparent increase in flinching behavior at the lowest doses

C=O [Formalin]
flinching behavior versus formalin concentration ([2]; 0.5%/50 μL to 5.0%/50 μL, all phases, compared to saline, 1-way ANOVA p<0.002): concentration-related increase in flinching behavior
peak flinch rate Phase I ([2]; 100 male Sprague Dawly rats, Phase I): ~50 flinches/min
peak flinch rate Phase II ([2]; 100 male Sprague Dawly rats, Phase II): ~37 flinches/min
mean cumulative flinches (±SEM) Phase I ([2]; 100 male rats, Phase I (0–9 min)): 203±9
mean cumulative flinches (±SEM) Phase II ([2]; 100 male rats, Phase II): 1058±39
mean cumulative flinches (±SEM) Phase IIA ([2]; 100 male rats, Phase IIA (10–40 min)): 792±27
mean cumulative flinches (±SEM) Phase IIB ([2]; 100 male rats, Phase IIB (41–60 min)): 266±16
Post hoc group comparison Phase I ([2]; Formalin, 0.5% vs. Formalin, 2.5%, Phase I): S (S = Significant difference between groups, p < 0.05, Tukey/Kramer post hoc test.)
Post hoc group comparison Phase II ([2]; Formalin, 0.5% vs. Formalin, 2.5%, Phase II): S (S = Significant difference between groups, p < 0.05, Tukey/Kramer post hoc test.)
Post hoc group comparison Phase IIA [2, 3]: S (S = Significant difference between groups, p < 0.05, Tukey/Kramer post hoc test.)
Post hoc group comparison Phase IIB [2, 3]: S (S = Significant difference between groups, p < 0.05, Tukey/Kramer post hoc test.)
Post hoc group comparison Phase I ([2]; Formalin, 0.5% vs. Formalin, 5.0%, Phase I): S (S = Significant difference between groups, p < 0.05, Tukey/Kramer post hoc test.)
Post hoc group comparison Phase II ([2]; Formalin, 0.5% vs. Formalin, 5.0%, Phase II): S (S = Significant difference between groups, p < 0.05, Tukey/Kramer post hoc test.)
Post hoc group comparison Phase IIA ([2]; Formalin, 0.5% vs. Formalin, 5.0%): S (S = Significant difference between groups, p < 0.05, Tukey/Kramer post hoc test.)
Cumulative flinching behavior (Mean ± SD) Phase I ([2]; Formalin, 0.5%, Phase I): 127 ± 66
Cumulative flinching behavior (Mean ± SD) Phase II ([2]; Formalin, 0.5%, Phase II): 400 ± 185
Cumulative flinching behavior (Mean ± SD) Phase IIA ([2]; Formalin, 0.5%): 301 ± 169
Cumulative flinching behavior (Mean ± SD) Phase IIB ([2]; Formalin, 0.5%): 100 ± 79
Post hoc group comparison Phase II ([2]; Formalin, 1.0% vs. Formalin, 2.5%, Phase II): S (S = Significant difference between groups, p < 0.05, Tukey/Kramer post hoc test.)
Cumulative flinching behavior (Mean ± SD) Phase I ([2]; Formalin, 1.0%, Phase I): 171 ± 55
Cumulative flinching behavior (Mean ± SD) Phase II ([2]; Formalin, 1.0%, Phase II): 613 ± 265
Cumulative flinching behavior (Mean ± SD) Phase IIA ([2]; Formalin, 1.0%): 495 ± 211
Cumulative flinching behavior (Mean ± SD) Phase IIB ([2]; Formalin, 1.0%): 118 ± 100
Cumulative flinching behavior (Mean ± SD) Phase I ([2]; Formalin, 2.5%, Phase I): 214 ± 75
Cumulative flinching behavior (Mean ± SD) Phase II ([2]; Formalin, 2.5%, Phase II): 898 ± 266
Cumulative flinching behavior (Mean ± SD) Phase IIA ([2]; Formalin, 2.5%): 662 ± 210
Cumulative flinching behavior (Mean ± SD) Phase IIB ([2]; Formalin, 2.5%): 236 ± 148
Cumulative flinching behavior (Mean ± SD) Phase I ([2]; Formalin, 5.0%, Phase I): 230 ± 84
Cumulative flinching behavior (Mean ± SD) Phase II ([2]; Formalin, 5.0%, Phase II): 811 ± 194
Cumulative flinching behavior (Mean ± SD) Phase IIA ([2]; Formalin, 5.0%): 659 ± 131
Cumulative flinching behavior (Mean ± SD) Phase IIB ([2]; Formalin, 5.0%): 152 ± 88
Post hoc group comparison Phase II ([2]; No Injection vs. Formalin, 1.0%, Phase II): S (S = Significant difference between groups, p < 0.05, Tukey/Kramer post hoc test.)
Post hoc group comparison Phase IIA ([2]; No Injection vs. Formalin, 1.0%): S (S = Significant difference between groups, p < 0.05, Tukey/Kramer post hoc test.)
Post hoc group comparison Phase I ([2]; No Injection vs. Formalin, 2.5%, Phase I): S (S = Significant difference between groups, p < 0.05, Tukey/Kramer post hoc test.)
Post hoc group comparison Phase II ([2]; No Injection vs. Formalin, 2.5%, Phase II): S (S = Significant difference between groups, p < 0.05, Tukey/Kramer post hoc test.)
Post hoc group comparison Phase IIA [2, 4]: S (S = Significant difference between groups, p < 0.05, Tukey/Kramer post hoc test.)
Post hoc group comparison Phase IIB [2, 4]: S (S = Significant difference between groups, p < 0.05, Tukey/Kramer post hoc test.)
Post hoc group comparison Phase I ([2]; No Injection vs. Formalin, 5.0%, Phase I): S (S = Significant difference between groups, p < 0.05, Tukey/Kramer post hoc test.)
Post hoc group comparison Phase II ([2]; No Injection vs. Formalin, 5.0%, Phase II): S (S = Significant difference between groups, p < 0.05, Tukey/Kramer post hoc test.)
Post hoc group comparison Phase IIA ([2]; No Injection vs. Formalin, 5.0%): S (S = Significant difference between groups, p < 0.05, Tukey/Kramer post hoc test.)
Post hoc group comparison Phase I ([2]; Saline vs. Formalin, 1.0%, Phase I): S (S = Significant difference between groups, p < 0.05, Tukey/Kramer post hoc test.)
Post hoc group comparison Phase II ([2]; Saline vs. Formalin, 1.0%, Phase II): S (S = Significant difference between groups, p < 0.05, Tukey/Kramer post hoc test.)
Post hoc group comparison Phase I ([2]; Saline vs. Formalin, 2.5%, Phase I): S (S = Significant difference between groups, p < 0.05, Tukey/Kramer post hoc test.)
Post hoc group comparison Phase II ([2]; Saline vs. Formalin, 2.5%, Phase II): S (S = Significant difference between groups, p < 0.05, Tukey/Kramer post hoc test.)
Post hoc group comparison Phase IIA ([2]; Saline vs. Formalin, 2.5%): S (S = Significant difference between groups, p < 0.05, Tukey/Kramer post hoc test.)
Post hoc group comparison Phase IIB ([2]; Saline vs. Formalin, 2.5%): S (S = Significant difference between groups, p < 0.05, Tukey/Kramer post hoc test.)
Post hoc group comparison Phase I ([2]; Saline vs. Formalin, 5.0%, Phase I): S (S = Significant difference between groups, p < 0.05, Tukey/Kramer post hoc test.)
Post hoc group comparison Phase II ([2]; Saline vs. Formalin, 5.0%, Phase II): S (S = Significant difference between groups, p < 0.05, Tukey/Kramer post hoc test.)
Post hoc group comparison Phase IIA ([2]; Saline vs. Formalin, 5.0%): S (S = Significant difference between groups, p < 0.05, Tukey/Kramer post hoc test.)
formalin concentration at which the maximum (plateau) of flinching was observed ([2]; range 0.5 to 5%): 2.5%

CN1CC[C@]23c4c5ccc(O)c4O[C@H]2[C@@H](O)C=C[C@H]3[C@H]1C5.O=S(=O)(O)O [Morphine, morphine sulfate]
effect on the flinching response ([1]; intrathecal injection, sulfate): potent dose dependent reduction of all phases of the flinching response; also recorded: dose-dependent reduction in all phases of the response to formalin
effect on the flinching response ([1]; systemic (intraperitoneal) injection, sulfate): potent dose dependent reduction of all phases of the flinching response; also recorded: dose-dependent reduction in all phases of the response to formalin
